The results in this text go back to ChEMBL document CHEMBL4342403, “New evolutions in the BACE1 inhibitor field from 2014 to 2018” (Bioorg Med Chem Lett, 2019).

Series [1] addresses T1, Beta-secretase 1 (Homo sapiens, UniProt P56817). Nature of the series: Inhibition of BACE1 (unknown origin).
The target in series [2] is T1, Beta-secretase 1. In words: Inhibition of BACE1 (unknown origin) by cell-based assay.
Series [3] has as its target T2, Beta-secretase 2 (Homo sapiens, UniProt Q9Y5Z0).
T2 sequence (Q9Y5Z0 whole entry): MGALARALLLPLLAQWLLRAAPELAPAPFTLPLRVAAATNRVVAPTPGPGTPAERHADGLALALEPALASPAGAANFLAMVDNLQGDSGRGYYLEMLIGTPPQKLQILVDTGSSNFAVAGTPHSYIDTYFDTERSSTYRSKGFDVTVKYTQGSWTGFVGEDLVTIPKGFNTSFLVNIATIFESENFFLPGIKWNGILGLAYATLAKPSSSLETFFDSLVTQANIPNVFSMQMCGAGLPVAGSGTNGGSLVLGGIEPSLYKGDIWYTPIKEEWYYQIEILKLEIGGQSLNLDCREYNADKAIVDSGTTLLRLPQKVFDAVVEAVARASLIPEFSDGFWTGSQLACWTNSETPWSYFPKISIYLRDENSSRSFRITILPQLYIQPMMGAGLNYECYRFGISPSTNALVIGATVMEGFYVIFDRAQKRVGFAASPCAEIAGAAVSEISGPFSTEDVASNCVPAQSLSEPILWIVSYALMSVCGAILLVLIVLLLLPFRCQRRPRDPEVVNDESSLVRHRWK
In words: Inhibition of BACE2 (unknown origin).

The target of series [4] is T1, Beta-secretase 1. Nature of the series: Inhibition of BACE1 in human SK-N-BE(2) cells expressing human APP695 assessed as reduction in amyloidbeta level incubated for 18 hrs by sandwich ELISA. It is filed as cell-based. Background: ELISA stands for enzyme-linked immunosorbent assay.
Series [5] in a line: Dissociation constant, pKa of the compound. In kind it is physicochemical.
The target of series [6] is P-glycoprotein (ABCB1) (Homo sapiens, UniProt P08183). Nature of the series: Substrate activity at p-glycoprotein (unknown origin) assessed as efflux ratio. Particulars: not told.
P-glycoprotein (ABCB1), sequence (P08183 whole entry): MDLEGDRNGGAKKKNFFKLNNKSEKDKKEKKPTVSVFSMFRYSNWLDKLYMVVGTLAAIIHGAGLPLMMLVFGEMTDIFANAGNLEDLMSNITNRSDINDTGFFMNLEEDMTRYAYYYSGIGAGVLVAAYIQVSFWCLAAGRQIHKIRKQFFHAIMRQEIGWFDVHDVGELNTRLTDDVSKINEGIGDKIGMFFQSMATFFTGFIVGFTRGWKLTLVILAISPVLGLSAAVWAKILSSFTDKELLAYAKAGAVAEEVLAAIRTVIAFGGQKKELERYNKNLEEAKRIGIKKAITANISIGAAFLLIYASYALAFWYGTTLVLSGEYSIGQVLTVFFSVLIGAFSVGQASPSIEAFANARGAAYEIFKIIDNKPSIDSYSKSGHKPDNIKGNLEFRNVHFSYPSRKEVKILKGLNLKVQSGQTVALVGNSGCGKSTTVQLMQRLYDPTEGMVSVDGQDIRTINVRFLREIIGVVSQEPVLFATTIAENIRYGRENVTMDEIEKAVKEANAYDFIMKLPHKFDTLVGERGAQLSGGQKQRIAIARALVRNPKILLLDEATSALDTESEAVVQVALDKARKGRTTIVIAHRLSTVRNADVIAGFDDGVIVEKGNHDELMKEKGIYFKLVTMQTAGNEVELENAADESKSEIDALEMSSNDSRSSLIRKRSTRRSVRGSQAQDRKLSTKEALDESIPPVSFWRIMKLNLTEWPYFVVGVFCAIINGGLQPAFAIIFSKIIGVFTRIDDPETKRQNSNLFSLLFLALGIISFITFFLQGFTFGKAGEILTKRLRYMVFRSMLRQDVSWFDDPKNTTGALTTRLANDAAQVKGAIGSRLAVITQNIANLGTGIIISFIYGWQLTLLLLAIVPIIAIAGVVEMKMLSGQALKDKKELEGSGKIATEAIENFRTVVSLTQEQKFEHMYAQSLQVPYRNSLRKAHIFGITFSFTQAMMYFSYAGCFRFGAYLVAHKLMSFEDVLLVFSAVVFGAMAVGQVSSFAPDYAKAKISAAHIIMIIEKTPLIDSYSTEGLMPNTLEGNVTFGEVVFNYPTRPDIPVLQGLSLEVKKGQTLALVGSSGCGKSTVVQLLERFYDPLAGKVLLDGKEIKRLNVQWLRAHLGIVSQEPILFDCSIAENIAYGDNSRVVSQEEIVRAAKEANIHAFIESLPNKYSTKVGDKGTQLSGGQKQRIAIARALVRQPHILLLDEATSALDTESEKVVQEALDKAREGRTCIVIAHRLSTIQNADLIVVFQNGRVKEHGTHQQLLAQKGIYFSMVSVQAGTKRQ
In series [7] the target is T1, Beta-secretase 1. In words: Inhibition of BACE1 (unknown origin) assessed as reduction in amyloidbeta 40 level after 24 hrs by cell-based sandwich ELISA.
Series [8] has as its target T1, Beta-secretase 1. Nature of the series: Inhibition of BACE1 in human SH-SY5Y cells expressing betaAPP assessed as reduction in amyloidbeta (1 to 40 residues) level incubated for 24 hrs by HTRF assay. In kind it is cell-based.
Series [9] has as its target T1, Beta-secretase 1. Nature of the series: Inhibition of BACE1 in HEK293 cells harboring APP assessed as reduction in amyloidbeta 40 level incubated for 18 to 20 hrs by AlphaLISA Assay. It is filed as cell-based. On the technique in general: In Alpha technology, singlet oxygen from a donor bead excites a nearby acceptor bead.
The target in series [10] is T1, Beta-secretase 1. Nature of the series: Inhibition of human BACE1 catalytic domain preincubated for 30 mins followed by QSY7-EISEVNLDAEFC-Europium-amide substrate addition and measured after […] by HTRF assay.
Series [11] deals with T2, Beta-secretase 2. In words: Inhibition of human BACE2 preincubated for 30 mins followed by QSY7- EISEVNLDAEFC-Eu-amide substrate addition and measured after […] by HTRF assay. On the technique in general: Time-resolved FRET reads energy transfer from a long-lived donor to a nearby acceptor.
Series [12] deals with Cathepsin D (Homo sapiens, UniProt P07339). In words: Inhibition of recombinant Cathepsin D (unknown origin) expressed in CHO cells preincubated for 1 hr followed by substrate addition and measured after 1 hr by FRET assay. In kind it is cell-based.
Cathepsin D, sequence (P07339 65-162 limits assumed): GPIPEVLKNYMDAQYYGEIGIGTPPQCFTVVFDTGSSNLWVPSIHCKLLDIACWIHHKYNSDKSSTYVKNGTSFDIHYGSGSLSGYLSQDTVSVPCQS
Cathepsin D, sequence (P07339 169-412 limits assumed): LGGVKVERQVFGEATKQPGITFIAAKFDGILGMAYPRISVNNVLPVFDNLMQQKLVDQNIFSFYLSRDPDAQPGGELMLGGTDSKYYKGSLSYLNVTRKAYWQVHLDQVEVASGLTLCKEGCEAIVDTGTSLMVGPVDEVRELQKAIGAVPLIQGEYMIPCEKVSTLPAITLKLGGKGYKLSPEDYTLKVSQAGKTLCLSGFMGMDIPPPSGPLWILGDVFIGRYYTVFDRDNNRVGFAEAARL
The target in series [13] is T1, Beta-secretase 1. In words: Inhibition of C-terminal His6-tagged human BACE1 expressed in mammalian expression system preincubated for 1 hr followed by substrate addition and measured after 1 hr by FRET assay.
In series [14] the target is T2, Beta-secretase 2. Nature of the series: Inhibition of C-terminal His6-tagged human BACE2 expressed in mammalian expression system preincubated for 1 hr followed by substrate addition and measured after 1 hr by FRET assay.
The target of series [15] is T1, Beta-secretase 1. In words: Inhibition of human BACE1 using Biotin-XSEVNLDAEFRHDSGC as substrate incubated for 2 hrs by fluorescence method.
Series [16] addresses Beta-secretase 1 (Rattus norvegicus, UniProt P56819). Nature of the series: Inhibition of BACE1 in Wistar rat neuronal cell suspension after 1 to 3 days by ELISA.
The target of series [17] is T1, Beta-secretase 1. Nature of the series: Inhibition of human BACE1 expressed in Escherichia coli preincubated for 1 hr followed by Mca-Ser-Glu-Val-Asn-Leu-Asp-Ala-Glu-Phe-Lys(Dnp)-OH substrate addition by spectroflurimetric assay.

Molecules are shown by their SMILES. Where only a bound is given, the exact number is not on record here.

T1 sequence (P56817 whole entry): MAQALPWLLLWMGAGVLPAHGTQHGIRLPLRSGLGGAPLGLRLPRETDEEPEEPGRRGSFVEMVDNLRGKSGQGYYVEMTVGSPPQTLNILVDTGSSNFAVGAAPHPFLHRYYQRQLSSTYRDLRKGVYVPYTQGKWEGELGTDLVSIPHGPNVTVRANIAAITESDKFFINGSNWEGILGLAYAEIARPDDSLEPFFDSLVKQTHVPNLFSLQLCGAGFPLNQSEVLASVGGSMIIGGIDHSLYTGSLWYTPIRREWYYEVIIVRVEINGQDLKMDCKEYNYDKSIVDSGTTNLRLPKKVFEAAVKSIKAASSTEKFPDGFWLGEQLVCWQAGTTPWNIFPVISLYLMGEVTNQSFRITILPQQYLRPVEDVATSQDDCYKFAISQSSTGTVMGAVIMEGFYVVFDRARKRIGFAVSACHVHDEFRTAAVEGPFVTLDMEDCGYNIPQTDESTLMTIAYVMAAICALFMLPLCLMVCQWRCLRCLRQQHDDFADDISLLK
Beta-secretase 1 (Rattus norvegicus, UniProt P56819), sequence (P56819 whole entry): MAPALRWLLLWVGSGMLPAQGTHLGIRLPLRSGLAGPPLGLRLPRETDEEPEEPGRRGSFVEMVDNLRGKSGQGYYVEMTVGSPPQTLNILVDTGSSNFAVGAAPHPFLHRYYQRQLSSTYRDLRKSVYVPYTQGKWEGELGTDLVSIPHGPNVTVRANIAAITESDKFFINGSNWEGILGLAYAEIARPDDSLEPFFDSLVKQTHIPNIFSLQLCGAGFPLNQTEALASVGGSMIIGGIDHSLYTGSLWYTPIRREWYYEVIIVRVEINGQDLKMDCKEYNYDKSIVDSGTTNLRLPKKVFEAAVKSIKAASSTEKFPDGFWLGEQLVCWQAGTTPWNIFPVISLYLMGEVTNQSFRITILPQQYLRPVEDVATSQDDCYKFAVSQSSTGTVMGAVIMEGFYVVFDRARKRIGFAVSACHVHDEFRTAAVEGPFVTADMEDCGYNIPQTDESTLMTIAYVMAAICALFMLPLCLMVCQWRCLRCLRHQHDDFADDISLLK

As a reminder, the IC50 is the concentration that gives 50% inhibition. In the case of `N#Cc1ccc(C(=O)Nc2ccc(F)c([C@]34COC[C@H]3n3cccc3C(N)=N4)c2)nc1`, the figures for the IC50 in [1], in [2] and in series [3] were 26.3 nM, 15.5 nM and 120 nM, respectively.

For `COc1ncc(CC2CCOCC2)c2c1C[C@]1(c3ccc(F)cc3F)N=C(N)SC[C@@H]1C2`, the IC50 in [4] was 0.76 nM.

One may read the pKa as the pH at which an ionisable group is half protonated. For the molecule `NC1=N[C@@]2(c3cc(CNCC(F)(F)F)c(F)cc3F)CO[C@@H](CF)C[C@H]2CS1`, the pKa in [5] worked out at 7.9.

A word on the efflux ratio: it is the permeability from basolateral to apical divided by that in the opposite direction, in the common usage. With `CC(F)(F)[C@@H]1C[C@@](C)(c2cc(NC(=O)c3ccc(OCF)cn3)ccc2F)N=C(N)S1`, the IC50 is 6.13 nM in series [1] and 0.5 nM in series [3]. Further, in series [6], the efflux ratio worked out at 1.6.

Take `C#CCOc1cnc(C(=O)Nc2cc(F)c(F)c([C@@]3(CF)N=C(N)S[C@H]4C[C@H]43)c2)cn1`: the IC50 in [7] worked out at 0.64 nM.

On to `COc1ncc(C(=O)NC2CC2)c2c1C[C@]1(c3ccc(F)cc3F)N=C(N)SC[C@@H]1C2`, for which, in series [4], the IC50 was determined as 9.6 nM.

Take `CC1(c2cc(NC(=O)c3ccc(C#N)cn3)ccc2F)Cc2ncc(F)cc2C(N)=N1` (centres undefined): in series [8], the IC50 came out at 2 nM.

As for `Cc1cc(C#N)cnc1C(=O)Nc1ccc(F)c([C@]2(C)CS3(=O)=NCCCCN3C(N)=N2)c1` (some centres undefined), in [9], the IC50 turned out to be 2 nM.

One may read the Ki as the dissociation constant of the complex between target and ligand, obtained from inhibition or displacement. As for `CN=[S@@]1(=O)C[C@@](C)(c2cc(NC(=O)c3ccc(Cl)cn3)ccc2F)N=C(N)C1(C)C`, the inhibition constant Ki in series [10] was 3 nM; in [11], 1 nM.

Turning to `Cc1cc(Cl)cnc1C(=O)Nc1ccc2c(c1)[C@@]1(C)N=C(N)C(C)(C)S(=O)(=O)[C@@H]1CCO2`, the half-inhibitory concentration (IC50) in series [7] was 6 nM; in [12] it was greater than 100000 nM.

In the case of `NC1=N[C@](CF)(c2cc(NC(=O)c3cnc(Cl)cn3)cc(F)c2F)[C@H]2[C@@H](S1)C2(F)F`, the half-maximal inhibitory concentration (IC50) in series [13] was 15.2 nM; in series [14] it was 3.02 nM; in series [7] it was 11.2 nM.

As for `C[C@@]1(c2cc(NC(=O)c3cnc(OCF)cn3)ccc2F)C[C@@H](C(F)F)SC(N)=N1`, the IC50 in series [1] came to 6.23 nM; in series [3], 0.19 nM. For the same molecule, the efflux ratio in series [6] turned out to be 1.1.

Take `C[C@H]1SC(N)=N[C@](C)(c2cc(NC(=O)c3cnc(F)cn3)ccc2F)C12CC(F)(F)C2`: the results for the IC50 in series [15] and in [8] were 11.9 nM and 5.4 nM, respectively.

In the case of `CN1C(=N)N[C@]2(C)c3cc(NC(=O)c4ccc(C#N)cn4)ccc3OCC[C@H]2S1(=O)=O` (relative stereo), the Ki in series [10] turned out to be 1 nM; in series [11] it was 14 nM.

For the molecule `NC1=N[C@@]2(c3cccc(NC(=O)c4cnc(C(F)F)cn4)c3)CCO[C@H]2CS1`, in [16], it took 8 nM to reach half-maximal inhibition (IC50).

In the case of `CN1CC2(C1)C(=N)N[C@](C)(c1cc(NC(=O)c3ccc(Cl)cn3)ccc1F)CS2(=O)=O`, the Ki worked out at 6.1 nM in series [10] and 1.2 nM in series [11].

`Cc1cc(C#N)cnc1C(=O)Nc1ccc(F)c([C@]2(C)CS(=O)(=NCC(F)(F)F)N(C)C(N)=N2)c1` (single isomer, unassigned): in series [9], the IC50 was 0.99 nM.

On to `CN1C[C@@H](c2cc(NC(=O)c3ccc(C#N)cn3)ccc2F)N=C(N)C(C)(C)S1(=O)=O`, for which the Ki stood at 22 nM in [10] and 32 nM in series [11].

In the case of `C[C@@]1(c2cc(NC(=O)c3ccc(C#N)cn3)ccc2F)CCC(N)=N1`, the 50% inhibitory concentration (IC50) in series [17] was 1050 nM. Further, the pKa in [5] is 11.1.

Consider `C[C@@]1(c2nc(NC(=O)c3ccc(C#N)cn3)ccc2F)C[C@@H](C(F)(F)F)OC(N)=N1`, for which the IC50 in [9] is 3.4 nM.

In series [16], `COc1cnc(C(=O)Nc2ccc(F)c([C@]34CO[C@H](C(F)F)[C@H]3CSC(N)=N4)c2)cn1` registered an IC50 of 4 nM.

For the molecule `CN=S1(=O)C[C@@](C)(c2cc(NC(=O)c3ccc(Cl)cn3)ccc2F)N=C(N)N1C` (single isomer, unassigned), the values for the Ki in [10] and in series [11] were 5 nM and 1 nM, respectively.

As for `COC[C@H]1SC(N)=N[C@](C)(c2cc(NC(=O)c3ccc(C#N)cn3)ccc2F)[C@H]1F`, the IC50 in series [8] turned out to be 1 nM.
